Point of comparison: Cc1nc(N(CCN(C)C)C(=O)Nc2ccc(N3CCOCC3)cc2)sc1S(N)(=O)=O, melting point 123 °C. Against it:
- CN(C(=O)Nc1ccc(N2CCOCC2)cc1)c1nc(Cl)c(S(=O)(=O)NC2CC2)s1 — higher, 241 °C
- CCOc1ccc(NC(=O)N(CCCO)c2nc(C)c(S(=O)(=O)NC)s2)cc1 — higher, 161 °C
- CN(C(=O)Nc1ccc(Oc2ccccc2)cc1)c1nc(Cl)c(S(=O)(=O)N(C)C)s1 — higher, 127 °C
- CCOc1ccc(NC(=O)N(C)c2nc(C)c(S(=O)(=O)NC)s2)cc1 — higher, 179 °C
- CCCOc1ccc(NC(=O)N(C)C2=CC(C)=C(S(=O)(=O)NCCOC)C2)cc1 — lower, 97 °C
- CCOc1ccc(NC(=O)N(CCNC(C)=O)c2nc(C)c(S(=O)(=O)N(C)C)s2)cc1 — higher, 184 °C
- CCOc1ccc(NC(=O)N(C)c2nc(C)c(S(=O)(=O)NC(C)C)s2)cc1 — higher, 192 °C
- CCCN(C(=O)Nc1ccc(-c2ccccc2)cc1)c1nc(C)c(S(=O)(=O)NCC)s1 — higher, 160 °C
- CCOc1ccc(NC(=O)N(C)c2nc(C)c(S(=O)(=O)N(C)CC)s2)cc1 — higher, 163 °C
- CNS(=O)(=O)c1sc(N(C)C(=O)Nc2ccc(-c3cccc(OC)c3)cc2)nc1C — higher, 178 °C
- CNS(=O)(=O)c1sc(N(Cn2ccnc2)C(=O)Nc2ccc(-c3ccccc3)cc2)nc1C — higher, 205 °C
- CCOc1ccc(NC(=O)Nc2nc(C)c(S(=O)(=O)NCCOC)s2)cc1 — higher, 137 °C
- C=CCN(C(=O)Nc1ccc(OCC)cc1)c1nc(C)c(S(=O)(=O)NC)s1 — higher, 162 °C
- Cc1nc(N(C)C(=O)Nc2ccc(N3CC=CC3)cc2)sc1S(=O)(=O)N(C)C — higher, 185 °C
- CCOc1ccc(NC(=O)N(CCCCNC(=O)OC(C)(C)C)c2nc(C)c(S(=O)(=O)N(C)C)s2)cc1 — higher, 152 °C
- CNS(=O)(=O)c1sc(N(CCCN(C)c2ccccc2)C(=O)Nc2ccc(-c3ccccc3)cc2)nc1C — higher, 148 °C
- CCCOc1ccc(NC(=O)N(C)c2nc(C)c(S(=O)(=O)NC)s2)cc1 — higher, 161 °C
- CCOc1ccc(NC(=O)N(C)c2nc(Cl)c(S(=O)(=O)NCN3CCCCC3)s2)cc1 — higher, 183 °C
- CCOc1ccc(NC(=O)N(C)c2nc(C)c(S(=O)(=O)NCc3ccc4c(c3)OCO4)s2)cc1 — higher, 178 °C
- Cc1nc(N(C)C(=O)Nc2ccc(N3CCOCC3)cc2)sc1S(=O)(=O)N(C)C1CC1 — higher, 198 °C
- CNS(=O)(=O)c1sc(N(CCCO)C(=O)Nc2ccc(N3CCOCC3)cc2)nc1C — higher, 181 °C
- CCc1nc(N(CCCO)C(=O)Nc2ccc(N3CCCC3)cc2)sc1S(=O)(=O)NC — higher, 161 °C
- CCOc1ccc(NC(=O)N(C)c2nc(CC)c(S(=O)(=O)NC)s2)cc1 — higher, 210 °C
- CNS(=O)(=O)c1sc(N(CC2CCCO2)C(=O)Nc2ccc(-c3ccccc3)cc2)nc1C (centres unmarked) — higher, 178 °C
- CC(=O)Nc1cccc(Oc2ccc(NC(=O)N(C)c3nc(Cl)c(S(=O)(=O)N(C)C)s3)cc2)c1 — higher, 219 °C
- CCOc1ccc(NC(=O)N(CCn2ccnn2)c2nc(C)c(S(=O)(=O)NC)s2)cc1 — higher, 188 °C
- CCOc1ccc(NC(=O)N(C)c2nc(C)c(S(=O)(=O)NCc3cccnc3)s2)cc1 — higher, 158 °C
- CCOc1ccc(NC(=O)N(Cc2ccncc2)c2nc(C)c(S(=O)(=O)N(C)C)s2)cc1 — higher, 188 °C
- COC(=O)c1ccc(N(C)C(=O)N(C)c2nc(Cl)c(S(=O)(=O)N(C)C)s2)cc1 — higher, 168 °C
- CN(C)C(=O)Nc1ccc(NC(=O)N(C)c2nc(Cl)c(S(=O)(=O)N(C)C)s2)cc1 — higher, 240 °C
- Cc1nc(N(C)C(=O)Nc2ccc(-c3ccccc3)cc2)sc1S(=O)(=O)NCC1CC1 — higher, 176 °C
- CCOc1ccc(NC(=O)N(CCNC(=O)OC(C)(C)C)c2nc(C)c(S(=O)(=O)N(C)C)s2)cc1 — higher, 164 °C
- Cc1nc(N(C)C(=O)Nc2ccc(OCC(O)CO)cc2)sc1S(=O)(=O)N(C)C (centres unmarked) — higher, 156 °C
- CCCN(C(=O)Nc1ccc(N2CCOCC2)cc1)c1nc(C)c(S(=O)(=O)N(C)C)s1 — higher, 161 °C
- CCCN(C(=O)Nc1ccc(COC)cc1)c1nc(C)c(S(=O)(=O)NCC(F)(F)F)s1 — higher, 143 °C
- COCCN(C(=O)Nc1ccc(-c2ccccc2)cc1)c1nc(C)c(S(N)(=O)=O)s1 [151] — higher, 167 °C
- CCOc1ccc(NC(=O)N(C)c2nc(C)c(S(=O)(=O)NCCn3ccnn3)s2)cc1 — higher, 154 °C
- CNS(=O)(=O)c1sc(N(CCOC)C(=O)Nc2ccc(N3CCCC3)cc2)nc1C — higher, 184 °C
- Cc1nc(N(C)C(=O)Nc2ccc(N3CCOCC3)cc2)sc1S(=O)(=O)NC1CC1 — higher, 235 °C
- CCOc1ccc(NC(=O)N(Cc2ccccn2)c2nc(C)c(S(=O)(=O)NC)s2)cc1 — higher, 194 °C
- CCOc1ccc(NC(=O)N(c2nc(C)c(S(=O)(=O)N(C)C)s2)C(C)CC)cc1 (centres unmarked) — higher, 130 °C
- CCOc1ccc(NC(=O)Nc2nc(C)c(S(=O)(=O)N3CCCC3)s2)cc1 — higher, 198 °C
- COCCNS(=O)(=O)c1sc(N(C)C(=O)Nc2ccc(-c3ccccc3)cc2)nc1C — higher, 157 °C
- CCOc1ccc(NC(=O)N(C)c2nc(Cl)c(S(=O)(=O)N(C)C)s2)cc1 — higher, 215 °C
- CN(C(=O)Nc1ccc(N2CCOCC2)c(Cl)c1)c1nc(Cl)c(S(=O)(=O)N(C)C)s1 — higher, 203 °C
- Cc1nc(N(C)C(=O)Nc2ccc(N3CCOCC3)cc2)sc1S(=O)(=O)N(C)CCn1ccnn1 — higher, 172 °C
- CNS(=O)(=O)c1sc(N(C)C(=O)Nc2ccc(N3CC=CC3)cc2)nc1C — higher, 208 to 209 °C
- Cc1nc(N(CCN(C)C)C(=O)Nc2ccc(-c3ccccc3)cc2)sc1S(N)(=O)=O — higher, 138 °C
- CNS(=O)(=O)c1sc(N(CCN(C)C)C(=O)Nc2ccc(N3CCOCC3)cc2)nc1C — higher, 196 °C
- CCCN(C(=O)Nc1ccc(OCC)cc1)c1nc(C)c(S(=O)(=O)NC)s1 — higher, 154 °C
- COCCN(C(=O)Nc1ccc(-c2ccccc2)cc1)c1nc(C)c(S(N)(=O)=O)s1 [195] — higher, 193 °C
- CCOc1ccc(NC(=O)N(Cc2ccncc2)c2nc(C)c(S(=O)(=O)NC)s2)cc1 — higher, 198 °C
- Cc1nc(N(C)C(=O)Nc2ccc(N3CCOCC3)cc2)sc1S(=O)(=O)N1CCCCC1 — higher, 206 °C
- CN(C(=O)Nc1ccc(OC(F)(F)C(F)F)cc1)c1nc(Cl)c(S(=O)(=O)N(C)C)s1 — higher, 168 °C
- CCOc1ccc(NC(=O)N(CCN(C)C)c2nc(C)c(S(=O)(=O)NC3CC3)s2)cc1 — higher, 168 °C
- CN(C(=O)Nc1ccc(N2CCOCC2)cc1)c1nc(Cl)c(S(=O)(=O)N(C)C)s1 [3] — higher, 197 °C
- CCCN(C(=O)Nc1ccc(-c2ccccc2)cc1)c1nc(C)c(S(N)(=O)=O)s1 — higher, 144 °C
- CCOc1ccc(NC(=O)N(CC2CCCN2CC)c2nc(C)c(S(=O)(=O)N(C)C)s2)cc1 (centres unmarked) — higher, 158 °C
- CCCN(C(=O)Nc1ccc(-c2ccccc2)cc1)c1nc(C)c(S(=O)(=O)NCCO)s1 — higher, 156 °C
- CCOc1ccc(NC(=O)N(CCCN)c2nc(C)c(S(=O)(=O)NC)s2)cc1.Cl — higher, 150 °C
- CNS(=O)(=O)c1sc(N(CCOC)C(=O)Nc2ccc(-c3ccccc3)cc2)nc1C — higher, 170 °C
- CCOc1ccc(NC(=O)N(CC(C)C)c2nc(C)c(S(=O)(=O)N(C)C)s2)cc1 — higher, 173 °C
- CCOc1ccc(NC(=O)N(CCN2CCOCC2)c2nc(C)c(S(=O)(=O)N(C)C)s2)cc1 — higher, 204 °C
- CCOc1ccc(NC(=O)N(Cc2cccnc2)c2nc(C)c(S(=O)(=O)N(C)C)s2)cc1 — higher, 180 °C
- Cc1nc(N(C)C(=O)Nc2ccc(N3CCCCC3)cc2)sc1S(=O)(=O)N(C)C — higher, 185 °C
- CCOc1ccc(NC(=O)N(C)c2nc(C)c(S(N)(=O)=O)s2)cc1 — higher, 196 °C
- CCOC(=O)N1CC2CCN(c3ccc(NC(=O)N(C)c4nc(S(=O)(=O)NC5CC5)c(C)s4)cc3)C2C1 (centres unmarked) — higher, 140 °C
- CCCN(C(=O)Nc1ccc(OCC)cc1)c1nc(C)c(S(=O)(=O)NCc2ccccc2)s1 — higher, 145 °C
- CCOc1ccc(NC(=O)N(CCN(C)C)c2nc(C)c(S(N)(=O)=O)s2)cc1 — higher, 162 °C
- CN(C(=O)Nc1ccc(OC(CF)CF)cc1)c1nc(Cl)c(S(=O)(=O)N(C)C)s1 — higher, 164 °C
- Cc1nc(N(C)C(=O)Nc2ccc(N3CCOCC3)cc2)sc1S(=O)(=O)NCc1ccccc1 — higher, 216 °C
- CCOc1ccc(NC(=O)N(CCOC)c2nc(C)c(S(=O)(=O)NC)s2)cc1 — higher, 159 °C
- CCCC(=O)Nc1cc(N2CCCC2)ccc1NC(=O)N(C)c1nc(C)c(S(=O)(=O)N(C)C)s1 — higher, 164 °C
- CCCOc1ccc(NC(=O)N(CCOC)c2nc(CC)c(S(N)(=O)=O)s2)cc1 — higher, 163 °C
- CCOc1ccc(NC(=O)N(Cc2nc3ccccc3[nH]2)c2nc(C)c(S(=O)(=O)NC)s2)cc1 — higher, 197 °C
- Cc1nc(N(Cc2ccncc2)C(=O)Nc2ccc(N3CCOCC3)cc2)sc1S(N)(=O)=O — higher, 186 °C
- CCCOc1ccc(NC(=O)N(C)C2=CC(C)=C(S(N)(=O)=O)C2)cc1 — higher, 200 °C
- CC(=O)N1CCc2c(cccc2Oc2ccc(NC(=O)N(C)c3nc(Cl)c(S(=O)(=O)N(C)C)s3)cc2)C1 — higher, 163 °C
- Cc1nc(N(C)C(=O)Nc2ccc(N3CCOCC3)cc2)sc1S(=O)(=O)N(C)Cc1ccccn1 — higher, 148 °C
- CCc1nc(N(C)C(=O)Nc2ccc(-c3ccccc3)cc2)sc1S(=O)(=O)NC — higher, 204 °C
- C=C(Nc1ccc(N2CCOCC2)cc1)Nc1nc(C)c(S(=O)(=O)N(C)C)s1 — higher, 188 °C
- CCOc1ccc(NC(=O)N(CCOc2ccccc2)c2nc(C)c(S(=O)(=O)NC)s2)cc1 — higher, 158 °C
- CCOc1ccc(NC(=O)N(CCCN(C)C)c2nc(C)c(S(=O)(=O)NC)s2)cc1 — higher, 185 °C
- CCOc1ccc(NC(=O)N(Cc2ccccc2)c2nc(C)c(S(=O)(=O)N(C)C)s2)cc1 — higher, 187 °C
- Cc1nc(N(C)C(=O)Nc2ccc(N3CCCCC3)cc2)sc1S(=O)(=O)NC1CC1 — higher, 198 °C

For CNS(=O)(=O)c1sc(N(C)C(=O)Nc2ccc(N3CCCCC3)cc2)nc1C, the melting point was 157 to 160 °C (dec.).
For CC(=O)Nc1cc(N2CCCC2)ccc1NC(=O)N(C)c1nc(C)c(S(=O)(=O)N(C)C)s1 [168], the melting point was 185 to 187 °C (dec.).
For Cc1nc(N(C)C(=O)Nc2ccc(N3CCCC3=O)cc2)sc1S(=O)(=O)N(C)C, the melting point was 195 °C (dec.).
